# Laboratory results taken from US12371454B2, “Cyclic peptide compound having Kras inhibitory action” (priority 2019, dated 2025).
# Starred links: 1 amine or outer side, 2 acyl side, 3 side chain; linkers in the order of their positions; H or OH if unused. Positions of bridges follow the written chain, without caps; N, C: chain ends. Non-standard residues stand in square brackets, D forms with d. Residues, ends and D or L forms follow the SMILES beside them. *: point of attachment. hPhe(3,5-F2-4-CF3) = N[C@@H](CCc1cc(F)c(C(F)(F)F)c(F)c1)C(=O)O; hPhe(3-Cl-4-CF3) = N[C@@H](CCc1ccc(C(F)(F)F)c(Cl)c1)C(=O)O; hPhe(3-F,4-CF3) = N[C@@H](CCc1ccc(C(F)(F)F)c(F)c1)C(=O)O; X67 = O=C([C@H](CCc1cc(F)c(F)cc1F)N[*:1])[*:2]; NEtPhe(4-Me) = CCN[C@@H](Cc1ccc(C)cc1)C(=O)O; NMePhe(4-Cl) = CN[C@@H](Cc1ccc(Cl)cc1)C(=O)O; NMeNle(6-CHF2) = CN[C@@H](CCCCC(F)F)C(=O)O; NMedβ3hAla = C[C@H](CC(=O)[*:2])N(C)[*:1]; NMeGly(cPent) = CN[C@H](C(=O)O)C1CCCC1; Phe(3-I) = N[C@@H](Cc1cccc(I)c1)C(=O)O; X10 = CC(C)=CC[C@H](N[*:1])C(=O)[*:2]; NMeY = CN[C@@H](Cc1ccc(O)cc1)C(=O)O; NMeCha = CN[C@@H](CC1CCCCC1)C(=O)O; Azetidine(3,3-F2) = FC1(F)CN(*)C1; NMeChg = CN[C@H](C(=O)O)C1CCCCC1; NMeF = CN[C@@H](Cc1ccccc1)C(=O)O; NMeD = CN[C@@H](CC(=O)O)C(=O)O; NMeL = CN[C@@H](CC(C)C)C(=O)O; Chg = N[C@H](C(=O)O)C1CCCCC1; NMeV = CN[C@H](C(=O)O)C(C)C; d(β3hA) = C[C@@H](N)CC(=O)O; Morpholide = C1CN(*)CCO1; NMeA = CN[C@@H](C)C(=O)O; NMeAib = CNC(C)(C)C(=O)O; Piperidide = C1CCN(*)CC1; Pra = C#CC[C@H](N)C(=O)O; Pyrrolidide = C1CCN(*)C1; Ac5c = NC1(C(=O)O)CCCC1; Aze = O=C(O)[C@@H]1CCN1; NcPrGly = O=C(O)CNC1CC1; Cyclobutyl = C1CC(*)C1; Aib = CC(C)(N)C(=O)O; Sar = CNCC(=O)O; Propyl = CCC*
# Biological target: T1, Kras and SOS1 (biotin-tagged human Kras loaded with GDP, His-tagged human SOS1) (Homo sapiens, UniProt P01116, G12D)
# T1 construct: made in house; host or cells: E. coli (stated for Kras only)
# Assay: Protein-protein interaction inhibition between Kras and SOS1 (KrasGl2D-SOS PPI) using AlphaScreen
# Assay type: binding
# Settings: AlphaScreen; biotin-tagged human Kras loaded with GDP, His-tagged human SOS1; read-out: KRAS G12D-SOS PPI IC50
# Outline: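 Binding between SOS1 and Kras is detected as bead-proximity luminescence: illuminate Ni-conjugated donors (680 nm), collect 520-620 nm emission from streptavidin-conjugated acceptors; Kras carries biotin and GDP loaded after purification, SOS1 carries a His tag.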
# T1 sequence (P01116 1-188 isoform P01116-2 G12D): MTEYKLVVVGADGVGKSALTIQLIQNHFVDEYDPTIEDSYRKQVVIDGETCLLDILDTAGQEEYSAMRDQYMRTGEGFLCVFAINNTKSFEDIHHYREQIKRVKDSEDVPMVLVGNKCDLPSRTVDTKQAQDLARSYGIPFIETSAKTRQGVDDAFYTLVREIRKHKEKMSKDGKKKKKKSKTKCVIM
row,Structure (SMILES),IC50 [nM]
1,CC[C@H](C)[C@@H]1NC(=O)[C@H](C)N(C)C(=O)C[C@@H](C)NC(=O)[C@H](CC(C)C)N(C)C(=O)[C@H](Cc2ccccc2)N(C)C(=O)[C@H](CC(C)C)NC(=O)[C@H](CCc2cc(F)c(F)cc2F)NC(=O)CN(C)C(=O)[C@H](Cc2ccc(Cl)cc2)N(C)C(=O)CN(C)C(=O)CN(C)C1=O [Compound 2087] (cyclo(I[Sar][Sar][NMePhe(4-Cl)][Sar][X67]L[NMeF][NMeL][d(β3hA)][NMeA])),130
2,CC(C)C[C@H]1C(=O)N[C@@H](COC2CCC2)C(=O)N(C)CC(=O)N(C)CC(=O)N(C)[C@@H](CC2CCCCC2)C(=O)N(C)CC(=O)N[C@@H](CCc2ccc(C(F)(F)F)c(Cl)c2)C(=O)N2CCC[C@H]2C(=O)NC2(CCCC2)C(=O)N(C)[C@@H](C2CCCCC2)C(=O)N(C)[C@H](C(=O)N2CCCCC2)CC(=O)N1C [Compound 226] ([NMeL]S(Cyclobutyl)[Sar][Sar][NMeCha][Sar][hPhe(3-Cl-4-CF3)]P[Ac5c][NMeChg][NMeD]-Piperidide; lactam N-11),3.5
3,C#CC[C@@H]1NC(=O)[C@H](Cc2cccc(I)c2)NC(=O)CN(C)C(=O)[C@H](Cc2ccc(OC)cc2)N(C)C(=O)[C@@H]2CCN2C(=O)[C@H](C)N(C)C(=O)[C@H]([C@@H](C)CC)NC(=O)[C@H](CC(C)C)N(C)C(=O)C[C@@H](C(=O)N2CCCCC2)N(C)C(=O)[C@H](CC(C)C)NC(=O)C(C)(C)N(C)C1=O [Compound 1350] ([NMeL]I[NMeA][Aze][NMeY](Me)[Sar][Phe(3-I)][Pra][NMeAib]L[NMeD]-Piperidide; lactam N-11),17
4,CC[C@H](C)[C@@H]1NC(=O)[C@H](CC(C)C)N(C)C(=O)C[C@@H](C)NC(=O)[C@H](C(C)C)N(C)C(=O)C2(CCCC2)NC(=O)[C@@H]2CCCN2C(=O)[C@H](CCc2ccc(C(F)(F)F)c(Cl)c2)NC(=O)CN(C2CC2)C(=O)[C@H](CC2CCCCC2)N(C)C(=O)CN(C)C(=O)CN(C)C1=O [Compound 204] (cyclo([Ac5c][NMeV][d(β3hA)][NMeL]I[Sar][Sar][NMeCha][NcPrGly][hPhe(3-Cl-4-CF3)]P)),180
5,"CCCOC[C@@H]1NC(=O)[C@H](CC(=O)N2CC(F)(F)C2)N(C)C(=O)[C@H](CCc2ccc(C(F)(F)F)c(Cl)c2)NC(=O)CN(C)C(=O)[C@H](CC2CCCCC2)N(C)C(=O)[C@@H]2CCN2C(=O)[C@H](C)N(C)C(=O)[C@H]([C@@H](C)CC)NC(=O)[C@H](CC(C)C)N(C)C(=O)C[C@@H](C(=O)N(C)C)N(C)C(=O)[C@H](C2CCCC2)N(C)C1=O [Compound 41] ([NMeL]I[NMeA][Aze][NMeCha][Sar][hPhe(3-Cl-4-CF3)][NMeD](Azetidine(3,3-F2))S(Propyl)[NMeGly(cPent)][NMeD]-NMe2; lactam N-11)",11
6,"CC(C)C[C@H]1C(=O)N[C@@H](C2CCCCC2)C(=O)N(C)CC(=O)N(C)CC(=O)N(C)[C@@H](CCCCC(F)F)C(=O)N(C)CC(=O)N[C@@H](CCc2ccc(C(F)(F)F)c(F)c2)C(=O)N(C)[C@@H](CC(C)C)C(=O)NC(C)(C)C(=O)N(C)[C@@H](CC(C)C)C(=O)N[C@H](C(=O)N2CCCC2)CC(=O)N1C [Compound 1453] ([NMeL][Chg][Sar][Sar][NMeNle(6-CHF2)][Sar][hPhe(3-F,4-CF3)][NMeL][Aib][NMeL]D-Pyrrolidide; lactam N-11)",110
7,"CC[C@H](C)[C@@H]1NC(=O)[C@H](CC(C)C)N(C)C(=O)C[C@@H](C(=O)N2CCOCC2)N(C)C(=O)[C@H](C2CCCC2)N(C)C(=O)C2(CCCC2)NC(=O)[C@@H]2CCCN2C(=O)[C@H](CCc2cc(F)c(C(F)(F)F)c(F)c2)NC(=O)CN(C)C(=O)[C@H](Cc2ccc(C)cc2)N(CC)C(=O)[C@@H]2CCN2C(=O)[C@H](C)N(C)C1=O [Compound 1368] ([NMeL]I[NMeA][Aze][NEtPhe(4-Me)][Sar][hPhe(3,5-F2-4-CF3)]P[Ac5c][NMeGly(cPent)][NMeD]-Morpholide; lactam N-11)",0.67
8,CC[C@H](C)[C@@H]1NC(=O)[C@H](CC(C)C)N(C)C(=O)C[C@@H](C)N(C)C(=O)[C@H](CC(C)C)NC(=O)C(C)(C)N(C)C(=O)[C@H](CC=C(C)C)NC(=O)[C@H](Cc2cccc(I)c2)NC(=O)CN(C)C(=O)[C@H](Cc2ccc(Cl)cc2)N(C)C(=O)[C@@H]2CCN2C(=O)CN(C)C1=O [Compound 1408] (cyclo([Aze][NMePhe(4-Cl)][Sar][Phe(3-I)][X10][NMeAib]L[NMedβ3hAla][NMeL]I[Sar])),160
9,CC[C@H](C)[C@@H]1NC(=O)[C@H](CC(C)C)N(C)C(=O)C[C@@H](C(=O)N2CCCCC2)N(C)C(=O)[C@H](CCCCC(F)F)N(C)C(=O)C2(CCCC2)NC(=O)[C@@H]2CCCN2C(=O)[C@H](CCc2ccc(C(F)(F)F)c(Cl)c2)NC(=O)CN(C)C(=O)[C@H](CC2CCCCC2)N(C)C(=O)CN(C)C(=O)CN(C)C1=O [Compound 653] ([NMeL]I[Sar][Sar][NMeCha][Sar][hPhe(3-Cl-4-CF3)]P[Ac5c][NMeNle(6-CHF2)][NMeD]-Piperidide; lactam N-11),44
